Tests used:
Experiment in all cases: In vitro antimicrobial efficacy using time kill procedure (ASTM E 2315-03)
Format in all cases: cell-based
Details in all cases: 1.0% concentration
[1] = system: Candida Albicans—ATCC No. 10231
Protocol: (§1) The following target organisms were included in the tests: E. Coli—ATCC No. 8739; Staphylococcus Aureus—ATCC No. 6538 and Candida Albicans—ATCC No. 10231. The initial inoculum counts for all the organisms were between 10^6 and 10^8 CFUs/ml.
(§2) The testing procedure was according to ASTM E 2315-03 standards and protocols. The exposure times were 2 minutes and 10 minutes. Each test concentration was tested in duplicate and each sample was plated in duplicate.
(§3) The log reduction expresses the efficacy of the antimicrobial formulation against the target organism. The final mean number of Colony Forming Units (CFUs) per ml of test solution at a given exposure time log 10 is calculated as follows:
(§4) Mean No. of CFUs/ml ═Na=C/(n×D×V)
(§5) • C=Total number of colonies counted on all plates • V=Sample volume used to prepare the pour plate (1 ml) • D=Dilution factor (0.01) • n=Number of plates taken into account • a=exposure time
(§6) The mean log reduction is calculated using the equation: […]
(§7) Mean log reduction log 10(NI×0.01)−log 10 (Na)
(§8) Where NI is the initial organism count

[2] = system: Staphylococcus Aureus—ATCC No. 6538
Protocol: as §1, §2, §3, §4, §5, §6, §7, §8

E. Coli—ATCC No. 8739 = system: E. Coli—ATCC No. 8739
Protocol: as §1, §2, §3, §4, §5, §6, §7, §8

CC(O)C(=O)O (stereo not drawn) [LA 88, Lactic Acid 88%]
2 minute log reduction, Candida Albicans ([1]; 2 minutes exposure): 2.69
10 minute log reduction, Candida Albicans ([1]; 10 minutes exposure): 2.79
2 minute log reduction, S. Aureus ([2]; 2 minutes exposure): <2.0
10 minute log reduction, S. Aureus ([2]; 10 minutes exposure): <2.0
2 minute log reduction, E. Coli (E. Coli—ATCC No. 8739; 2 minutes exposure): 2.36
10 minute log reduction, E. Coli (E. Coli—ATCC No. 8739; 10 minutes exposure): 2.41
